“Also recorded” adds a separate entry of the source.
What was measured:
[1] = system: SHH signaling pathway in the intervertebral disc; experiment: Intraperitoneal SAG in adult mice, real-time RT-qPCR of lumbar discs for SHH and its downstream targets; assay type: in vivo, mouse; conditions: middle-aged mice, intraperitoneal injection
[2] = system: SHH signaling pathway in the intervertebral disc; experiment: as above; assay type: in vivo, mouse; conditions: i.p., 10 mg/kg body weight, every day for seven days, vs water
Protocol: To test the potential for activation of SHH or SHH signaling for disc therapy and treatment of lower back pain, a small molecule agonist of hedgehog signaling pathway called SAG that activates the smoothened receptor downstream of the ligand was administered to mice. Adult mice were administered intraperitoneally either with water or SAG dissolved in water at a concentration of with 10 mg/kg body weight. The mice were treated every day for seven days. Next day, the lumbar discs were collected for RNA isolation and real-time RT-qPCR analysis for SHH and its downstream targets. […] Upregulation of SHH mRNA expression was also associated with an increase in the expression of its downstream targets Ptch1 and Gli1.

one-year-old mouse disc = conditions: in vitro; cited from earlier work

SMILES	expression of ECM protein ACAN [1]	expression of ECM marker Col2 [2]	expression of ECM marker Sox9 [2]	expression of downstream target Gli1 [2]	expression of downstream target Ptch1 [2]	mRNA expression of SHH compared to controls [2]	ECM production (one-year-old mouse disc)	increase in cell proliferation (one-year-old mouse disc)	stimulation of Hedgehog signaling (one-year-old mouse disc)
CNC1CCC(N(Cc2cccc(-c3ccncc3)c2)C(=O)c2sc3ccccc3c2Cl)CC1 (stereo not drawn) [SAG]	upregulation	increased expression; also recorded: upregulation	increased expression; also recorded: upregulation	increase; also recorded: upregulation	increase; also recorded: upregulation	increased; also recorded: up-regulation	–	–	–
O=C1Nc2cc(Br)ccc2/C1=C1/Nc2ccccc2/C1=N\O [BIO]	–	–	–	–	–	–	increased	Not observed	increased

— patent publication US11690834B2, “Composition, uses, and methods of treating spinal disc degeneration through sonic hedgehog signaling pathway” (New York Society For the Relief Of The Ruptured and …, priority 2017, dated 2023)
